# Read-outs that look alike come from different tables or passages of the source.
# Assays:
# Experiment in all cases: MIC of compounds alone and combined with antibacterials, broth microdilution (CLSI)
# Assay type in all cases: cell-based
# [1] = system: Citrobacter koseri (CKR) isolates; conditions: for MIC: Citrobacter koseri, read-out: MIC
# How it was run: (§1)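 First, log-phase suspensions are brought to a final 5·10^5 CFU/mL in cation-adjusted Mueller-Hinton broth. Then plates with compound, antibacterial, or both incubate 16-20 h at 35° C under ambient air. Finally, visual inspection gives the lowest growth-preventing concentration for each agent.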
# [2] = system: Enterobacter aerogenes (EAE) isolates; conditions: for MIC: Klebsiella aerogenes, read-out: MIC
# How it was run: as §1
# [3] = system: Klebsiella oxytoca (KOX) isolates; conditions: for MIC: Klebsiella oxytoca
# How it was run: as §1
# [4] = system: Morganella morganii (MMO) isolates; conditions: for MIC: Morganella morganii
# How it was run: as §1
compound,measurement,setting,value
"C=CC1=C(C(=O)O)N2C(=O)[C@@H](NC(=O)/C(=N\OCC(=O)O)c3csc(N)n3)[C@H]2SC1 [FIX, Cefixime]",MIC ATB in combination,"[1]; CKO ROU, AF1 @ 4 μg/mL",<=0.25 μg/mL
same,MIC ATB in combination,"[1]; CKO ROU, AF1 @ 8 μg/mL",<=0.25 μg/mL
same,MIC ATB in combination,"[1]; CKO UFR149, AF1 @ 4 μg/mL",0.5 µg/mL
same,MIC ATB in combination,"[1]; CKO UFR149, AF1 @ 8 μg/mL",<=0.25 μg/mL
same,MIC ATB in combination,"[1]; CKO UFR150, AF1 @ 4 μg/mL",2 µg/mL
same,MIC ATB in combination,"[1]; CKO UFR150, AF1 @ 8 μg/mL",1 µg/mL
same,MIC,"[1]; strain CKO ROU (TEM-1, SHV-12, CTX-M-15, OXA-1, OXA-48), ATB alone",1 µg/mL
same,MIC,"[1]; strain CKO ROU (TEM-1, SHV-12, CTX-M-15, OXA-1, OXA-48), CLA @ 4 μg/ml+ ATB",2 µg/mL
same,MIC,"[1]; strain CKO UFR149 (OXA-48), ATB alone",0.5 µg/mL
same,MIC,"[1]; strain CKO UFR149 (OXA-48), CLA @ 4 μg/ml+ ATB",1 µg/mL
same,MIC,"[1]; strain CKO UFR150 (TEM-1, OXA-48), ATB alone",2 µg/mL
same,MIC,"[1]; strain CKO UFR150 (TEM-1, OXA-48), CLA @ 4 μg/ml+ ATB",2 µg/mL
same,MIC ATB in combination,"[2]; EAE 49469, AF1 @ 4 μg/mL",32 µg/mL
same,MIC ATB in combination,"[2]; EAE 49469, AF1 @ 8 μg/mL",16 µg/mL
same,MIC ATB in combination,"[2]; EAE 200261, AF1 @ 4 μg/mL",32 µg/mL
same,MIC ATB in combination,"[2]; EAE 200261, AF1 @ 8 μg/mL",4 µg/mL
same,MIC ATB in combination,"[2]; EAE UFR199, AF1 @ 4 μg/mL",1 µg/mL
same,MIC ATB in combination,"[2]; EAE UFR199, AF1 @ 8 μg/mL",0.25 µg/mL
same,MIC ATB in combination,"[2]; EAE UFR201, AF1 @ 4 μg/mL",<=0.25 μg/mL
same,MIC ATB in combination,"[2]; EAE UFR201, AF1 @ 8 μg/mL",<=0.25 μg/mL
same,MIC ATB in combination,"[2]; EAE UFR202, AF1 @ 4 μg/mL",16 µg/mL
same,MIC ATB in combination,"[2]; EAE UFR202, AF1 @ 8 μg/mL",4 µg/mL
same,MIC ATB in combination,"[2]; EAE UFR213, AF1 @ 4 μg/mL",1 µg/mL
same,MIC ATB in combination,"[2]; EAE UFR213, AF1 @ 8 μg/mL",0.5 µg/mL
same,MIC,"[2]; EAE UFR199, alone",> 1020 µg/mL
same,MIC,"[2]; strain EAE 49469 (AmpC), ATB alone",> 128 µg/mL
same,MIC,"[2]; strain EAE 49469 (AmpC), CLA @ 4 μg/ml+ ATB",> 128 µg/mL
same,MIC,"[2]; strain EAE 200261 (TEM-x, AmpC), ATB alone",> 128 µg/mL
same,MIC,"[2]; strain EAE 200261 (TEM-x, AmpC), CLA @ 4 μg/ml+ ATB",> 128 µg/mL
same,MIC,"[2]; strain EAE UFR199 (TEM-1b, SHV-12, KPC-2, OXA-9), ATB alone",> 1020 µg/mL
same,MIC,"[2]; strain EAE UFR199 (TEM-1b, SHV-12, KPC-2, OXA-9), CLA @ 4 μg/ml+ ATB",16 µg/mL
same,MIC,"[2]; strain EAE UFR201 (TEM-1, SHV-12, CTX-M-15), ATB alone",> 128 µg/mL
same,MIC,"[2]; strain EAE UFR201 (TEM-1, SHV-12, CTX-M-15), CLA @ 4 μg/ml+ ATB",≤ 0.25 µg/mL
same,MIC,"[2]; strain EAE UFR202 (TEM-24), ATB alone",> 128 µg/mL
same,MIC,"[2]; strain EAE UFR202 (TEM-24), CLA @ 4 μg/ml+ ATB",> 128 µg/mL
same,MIC,"[2]; strain EAE UFR213 (TEM-24), ATB alone",> 128 µg/mL
same,MIC,"[2]; strain EAE UFR213 (TEM-24), CLA @ 4 μg/ml+ ATB",> 128 µg/mL
same,MIC ATB in combination,"[3]; KOX UFR21, AF1 @ 4 μg/mL",2 µg/mL
same,MIC ATB in combination,"[3]; KOX UFR21, AF1 @ 8 μg/mL",1 µg/mL
same,MIC ATB in combination,"[3]; KOX UFR173, AF1 @ 4 μg/mL",<=0.25 μg/mL
same,MIC ATB in combination,"[3]; KOX UFR173, AF1 @ 8 μg/mL",<=0.25 μg/mL
same,MIC ATB in combination,"[3]; KOX UFR223, AF1 @ 4 μg/mL",<=0.25 μg/mL
same,MIC ATB in combination,"[3]; KOX UFR223, AF1 @ 8 μg/mL",<=0.25 μg/mL
same,MIC ATB in combination,"[3]; KOX UFR224, AF1 @ 4 μg/mL",<=0.25 μg/mL
same,MIC ATB in combination,"[3]; KOX UFR224, AF1 @ 8 μg/mL",<=0.25 μg/mL
same,MIC,"[3]; strain KOX UFR21 (TEM-1, CTX-M-15, OXA-48), ATB alone",> 128 µg/mL
same,MIC,"[3]; strain KOX UFR21 (TEM-1, CTX-M-15, OXA-48), CLA @ 4 μg/ml+ ATB",> 128 µg/mL
same,MIC,"[3]; strain KOX UFR173 (OXY2-2), ATB alone, read-out: MIC",16 µg/mL
same,MIC,"[3]; strain KOX UFR173 (OXY2-2), CLA @ 4 μg/ml+ ATB, read-out: MIC",4 µg/mL
same,MIC,"[3]; strain KOX UFR223 (SHV-11, OXA-48), ATB alone, read-out: MIC",≤ 0.125 µg/mL
same,MIC,"[3]; strain KOX UFR223 (SHV-11, OXA-48), CLA @ 4 μg/ml+ ATB, read-out: MIC",≤ 0.25 µg/mL
same,MIC,"[3]; strain KOX UFR224 (CTX-M-15, OXA-48), ATB alone",> 128 µg/mL
same,MIC,"[3]; strain KOX UFR224 (CTX-M-15, OXA-48), CLA @ 4 μg/ml+ ATB, read-out: MIC",8 µg/mL
same,MIC ATB in combination,"[4]; MMO 200321, AF1 @ 4 μg/mL",4 µg/mL
same,MIC ATB in combination,"[4]; MMO 200321, AF1 @ 8 μg/mL",4 µg/mL
same,MIC ATB in combination,"[4]; MMO UFR144, AF1 @ 4 μg/mL",2 µg/mL
same,MIC ATB in combination,"[4]; MMO UFR144, AF1 @ 8 μg/mL",2 µg/mL
same,MIC ATB in combination,"[4]; MMO UFR240, AF1 @ 4 μg/mL",<=0.25 μg/mL
same,MIC ATB in combination,"[4]; MMO UFR240, AF1 @ 8 μg/mL",<=0.25 μg/mL
same,MIC ATB in combination,"[4]; MMO UFR241, AF1 @ 4 μg/mL",2 µg/mL
same,MIC ATB in combination,"[4]; MMO UFR241, AF1 @ 8 μg/mL",<=0.25 μg/mL
same,MIC ATB in combination,"[4]; MMO UFR242, AF1 @ 4 μg/mL",4 µg/mL
same,MIC ATB in combination,"[4]; MMO UFR242, AF1 @ 8 μg/mL",2 µg/mL
same,MIC ATB in combination,"[4]; MMO UFR243, AF1 @ 4 μg/mL",0.5 µg/mL
same,MIC ATB in combination,"[4]; MMO UFR243, AF1 @ 8 μg/mL",<=0.25 μg/mL
same,MIC ATB in combination,"[4]; MMO UFR244, AF1 @ 4 μg/mL",<=0.25 μg/mL
same,MIC ATB in combination,"[4]; MMO UFR244, AF1 @ 8 μg/mL",<=0.25 μg/mL
same,MIC ATB in combination,"[4]; MMO UFR245, AF1 @ 4 μg/mL",2 µg/mL
same,MIC ATB in combination,"[4]; MMO UFR245, AF1 @ 8 μg/mL",<=0.25 μg/mL
same,MIC ATB in combination,"[4]; MMO UFR246, AF1 @ 4 μg/mL",2 µg/mL
same,MIC ATB in combination,"[4]; MMO UFR246, AF1 @ 8 μg/mL",1 µg/mL
same,MIC ATB in combination,"[4]; MMO UFR247, AF1 @ 4 μg/mL",0.5 µg/mL
same,MIC ATB in combination,"[4]; MMO UFR247, AF1 @ 8 μg/mL",0.25 µg/mL
same,MIC,"[4]; strain MMO 200321 (TEM-1, CTX-M-15, OXA-1), ATB alone",> 128 µg/mL
same,MIC,"[4]; strain MMO 200321 (TEM-1, CTX-M-15, OXA-1), CLA @ 4 μg/ml+ ATB, read-out: MIC",32 µg/mL
same,MIC,"[4]; strain MMO UFR144 (TEM-1, CTX-M-15), ATB alone",> 128 µg/mL
same,MIC,"[4]; strain MMO UFR144 (TEM-1, CTX-M-15), CLA @ 4 μg/ml+ ATB, read-out: MIC",32 µg/mL
same,MIC,"[4]; strain MMO UFR240 (CTX-M-9), ATB alone, read-out: MIC",1 µg/mL
same,MIC,"[4]; strain MMO UFR240 (CTX-M-9), CLA @ 4 μg/ml+ ATB, read-out: MIC",8 µg/mL
same,MIC,"[4]; strain MMO UFR241 (TEM-1, CTX-M-15), ATB alone",> 128 µg/mL
same,MIC,"[4]; strain MMO UFR241 (TEM-1, CTX-M-15), CLA @ 4 μg/ml+ ATB, read-out: MIC",32 µg/mL

# — patent publication US20200017496A1 (priority 2017, published 2020)
